Data reported in patent US12589107B2, “Composition containing nicotinamide mononucleotide and mogroside, and application thereof” (Beijing Hebabiz Biotechnology Co., Inc., priority 2019, dated 2026).

Legend:
[1] = tested on: alloxan-damaged RINm5f cells; experiment: MTT cell viability assay, protection against alloxan-induced islet β-cell damage (with Calcusyn combination index); format: cell-based, rat; conditions: for combination index CI value with alloxan: agent 0.5, 1, 5, 10 mM with alloxan 15 mM, Calcusyn, >1.0 = antagonistic (cytoprotective); for cell survival rate of alloxan-damaged pancreatic β-cells, single agent: alloxan 15 mM, agent 0.5, 1, 5, 10 mM, pretreated 1 h, 24 h, significant vs AXN group at 5 mM (P<0.05) and 10 mM (P<0.01)
Experimental: RINm5F cells were cultured to the logarithmic growth phase, inoculated in 96-well culture plates at a cell density of 5×10^4/ml, cultured for 24 hours, and then drugs were added. The experiment was divided into a negative control group, an alloxan damage group (AXN group) and a protection group. Both the AXN group and the protection group were added with alloxan at a final concentration of 15 mM, and the protection group was added with different concentrations of GX999 and GX008A, pretreated for 1h. The experiment set up 4 duplicate wells and the experiment was repeated three times.
RINm5F cells were cultured to the logarithmic growth phase, inoculated in 96-well culture plates at a cell density of 5×10^4/ml, cultured for 24 hours, and then drugs were added. The experiment was divided into a negative control group, an alloxan damage group (AXN group) and a protection group. Both the AXN group and the protection group were added with alloxan at a final concentration of 15 mM, and the protection group was added with different concentrations of GX999 and GX008A, pretreated for 1h. The experiment set up 4 duplicate wells and they were placed in a carbon dioxide incubator for regular culture for 24 hours. MTT 20 ul (5 mg/mL) was added to each well and incubated for 4 hours. Then the culture medium was discarded, 150 ul DMSO was added to each well and shaken for 10 minutes, and the OD value of the optical density was detected at 490 nm with a microplate reader.
According to the inhibition rates of different concentrations of drugs alone and in combination, the Calcusyn software was used to analyze and process data such as the inhibition rates of GX999 and GX008A alone at different concentrations and the inhibition rates in combination at corresponding concentrations to obtain the combination index (CI) value. According to the definition of combination index, the synergistic effect of drugs was judged, and the synergistic effect is indicated by less than 1.0, and the antagonistic effect is indicated by greater than 1.0.
The experiment set up a negative control group and a damage group with different concentrations of alloxan (concentrations of 4 mM, 7 mM, 10 mM, 15 mM, 20 mM), after 24 hours of exposure, then 4 duplicate wells were set up, and the MTT method was used to detect the cell survival rate. […] Compared with the blank control group, the P value was less than 0.01, and the difference was statistically significant.

3T3-L1 preadipocytes = experiment: Induced differentiation of 3T3-L1 preadipocytes, Oil Red O staining of lipid droplets; format: cell-based; conditions: 10 mM each, 8 days of induced differentiation, P<0.01
Experimental: 2 days after the 3T3-L1 preadipocytes grew to complete confluence, the induction of differentiation began. That is, the DMEM complete medium was discarded, and replaced with DMEM complete medium containing 5 ug/ml insulin, 0.5 mM IBMX, 1 uM dexamethasone, and after 2 days, it was replaced with DMEM complete culture medium containing 5 ug/ml insulin and cultured for 2 days. Then DMEM complete culture medium was used to continue culturing for 2 days. From the first day of differentiation, the experimental group was given a culture medium containing 10 mM GX999 or 10 mM GX008A to intervene in the whole process of cell differentiation, and the control group was added with conventional inducers.
After 8 days of induced differentiation, the cells were fixed with 4% paraformaldehyde for 30 minutes, washed 3 times with balanced salt solution (PBS), incubated with oil red O staining solution for 60 minutes, the pipetted liquid was rinsed 3 times with PBS, and observed for the formation of lipid droplets under an inverted microscope and a video was taken. Isopropanol (200 ul per well) was added, and the absorbance at A490 nm was measured with a microplate reader after 5 minutes.
Based on the results of the above-mentioned combination application experiment, the drug concentration and combination concentration were selected. […]

3T3L1 preadipocytes = experiment: MTT cell viability assay, proliferation of 3T3L1 preadipocytes (with Calcusyn combination index); format: cell-based; conditions: 48 hours; for survival rate of 3T3L1 cells / cell proliferation, single agent: GX999 10-60 mM, GX008A 5-200 mM, P<0.01 vs blank control
Experimental: 3T3L1 cells were placed in DMEM high-glucose medium containing 10% calf serum and cultured at 37° C. and 5% CO2. When the cells reached 90% confluence, they were digested with 0.25% trypsin, passaged, and inoculated in a 96-well cell culture plate.
The logarithmic growth phase cells were taken and inoculated in a 96-well plate at a density of 5×10^3 cells/mL, with 4 replicate wells in each group. After the cells grew to about 40%-50% confluence, the fresh drug-containing medium was replaced with and they were divided into a GX999 alone group, a GX008A group, and a GX999+GX008A combination group. After culturing for 48h, MTT 20 ul (5 mg/mL) was added to each well and incubated for 4h. Then the culture medium was discarded, 150 ul DMSO was added to each well and shaken for 10 minutes, and the OD value of the optical density was detected at 490 nm with a microplate reader, and the cell survival rate was calculated according to the formula. Analysis of drug synergy:
Combination method: 10 mM GX999 in combination with GX008A (0, 5, 10, 30, 50 mM) group. According to the inhibition rates of different concentrations of drugs alone and in combination, the Calcusyn software was used to analyze and process data such as the inhibition rates of GX999 and GX008A alone at different concentrations and the inhibition rates in combination at corresponding concentrations to obtain the combination index (CI) value. According to the definition of combination index, the synergistic effect of drugs was judged, and the synergistic effect is indicated by less than 1.0, and the antagonistic effect is indicated by greater than 1.0.

| SMILES | cell survival rate / cell proliferation (alloxan cell damage model) ([1]; alloxan 4, 7, 10, 15, 20 mM, 24 hours, RINm5f cells, MTT) | combination index CI value with alloxan [1] | cell survival rate of alloxan-damaged pancreatic β-cells, single agent [1] | lipid droplet content in cells compared with the differentiation group (3T3-L1 preadipocytes) | IC50 (3T3L1 preadipocytes; 3T3L1 cells, MTT, read-out: IC50 (3T3L1 cell survival rate)) [mM] | survival rate of 3T3L1 cells / cell proliferation, single agent (3T3L1 preadipocytes) |
| --- | --- | --- | --- | --- | --- | --- |
| O=C1NC(=O)C(=O)C(=O)N1 [alloxan, reference compound] | inhibited cell proliferation in a concentration-dependent manner | – | – | – | – | – |
| NC(=O)c1ccc[n+]([C@@H]2O[C@H](COP(=O)([O-])O)[C@@H](O)[C@H]2O)c1 [GX999, Nicotinamide mononucleotide] | – | greater than 1.0 | the cell survival rate could be significantly improved | significantly reduced | 51.7 ± 1.5 | inhibited cell proliferation in a concentration-dependent manner |
| C[C@H](CC[C@@H](O[C@@H]1O[C@H](CO[C@@H]2O[C@H](CO)[C@@H](O)[C@H](O)[C@H]2O)[C@@H](O)[C@H](O)[C@H]1O[C@@H]1O[C@H](CO)[C@@H](O)[C@H](O)[C@H]1O)C(C)(C)O)[C@H]1CC[C@@]2(C)[C@@H]3CC=C4[C@@H](CC[C@H](O[C@@H]5O[C@H](CO[C@@H]6O[C@H](CO)[C@@H](O)[C@H](O)[C@H]6O)[C@@H](O)[C@H](O)[C@H]5O)C4(C)C)[C@]3(C)[C@H](O)C[C@]12C [GX008A, Mogroside V] | – | greater than 1.0 | the cell survival rate could be significantly improved | significantly reduced | – | inhibited cell proliferation in a concentration-dependent manner |
